Source: ChEMBL document CHEMBL1124651, “Cytostatic trans-platinum(II) complexes” (J Med Chem, 1989)
Several values for one entry are separate records, joined by “and”; a condition that tells them apart may be missing. Identical values can stand only once.

Key:
Mus musculus = test: Maximum dose at which all tested BDF1 mice survived after 30 days of intraperitoneal dosage; format: functional
L1210 = test: Compound was evaluated for its inhibitory dose against L1210 leukemia cell line; format: functional, cell-based; details: Mus musculus
P388 = test: Anti tumor activity expressed as median survival time of treated BDF1 mice bearing P388 leukemia cells versus untreated controls; format: functional, cell-based; details: Mus musculus

Substance | LD0 (Mus musculus) [µM/kg] | ID50 (L1210) [µM] | T/C (P388)
CISPLATIN | 30 | 2.3 | 205%
Cis-[PtCl2(gamma-pic)2] complex | – | – | 105% and 119%
TRANSPLATIN | 167 | 67 | 116%
